Assay results published in US9686982B2, “Treatment of potatoes and root vegetables during storage” (AMVAC CHEMICAL CORPORATION, priority 2013, dated 2017).

Assays:
[1] = system: tubers (cv Alturas); assay: Tuber firmness measured with TA-XT-2 texture analyzer; assay type: in vivo, potato; conditions: 115 ppm; for Tuber firmness (N) Average / Tuber firmness (N) Rep 1 / Tuber firmness (N) Rep 2 / Tuber firmness (N) Rep 3 / Tuber firmness (N) Rep 4: stored at 8° C.; for Tuber firmness (N) Rep 1 / Tuber firmness (N) Rep 2 / Tuber firmness (N) Rep 3 / Tuber firmness (N) Rep 4: mean of 6 tubers
Procedure: The source of tubers for this study was Telford Farms in Paul, Id. The storage unit temperature set point was 48.5° F. (9° C.). The tuber pulp temperatures ranged from 49 to 53.6° F. (9 to 12° C.) depending upon their location in the pile. Untreated tubers (cv Alturas) were selected from storage on Jul. 2, 2013 (prior to SmartBlock® application) to serve as untreated controls. About 200 lbs (91 kg) of these were distributed into 4 coolers with cold packs and transported to the Fed Ex office in Twin Falls, Id. at 1:45 pm where they remained in the air conditioned office until 6:23 pm when they left the facility. Untreated tubers to arrived in Pullman at 11:45 am on July 3.
SmartBlock® was applied at a rate of 4.2 fluid oz ton^−1 (136 mL MT^−1) to tubers remaining in the Telford Farms storage on July 2. Ventilation was suspended for an estimated 12 to 18 hrs. post treatment. A shipment of the treated tubers was packed as described above and delivered to Fed Ex in Twin Falls for shipment on July 3. The shipment arrived in Pullman on July 5 at 11:30 am.
Tubers were sorted into weight categories immediately upon arrival in Pullman, working at room temperature (˜25° C.) and in dim light (0.16-1.34 μE sec^−1 m^−2). Two experimental groups were created from the untreated (control) tubers; those with one or more sprouts ≧0.5 cm and those with no significant (>2 mm) sprouts. Sorting of tubers and their assignment to treatment groups for the various experiments was accomplished within 1.5 hr. and subsequently all tubers were placed in dark, walk-in storage at 8° C. with 85 to 90% RH. Humidity was maintained through the use of a household room humidifier, water on the concrete floor, and damp burlap placed on the empty shelves.
Tubers for firmness measurements were sorted by treatment and blocked for size. Each treatment group (containing at least 24 tubers) was stored in a plastic tote in the walk-in cold room at 8° C. Damp burlap was placed atop the tote so as not to contact the tubers directly. Burlap was re-wetted every two days. At 6, 13, 20, and 27 days after treatment (DAT), six tubers from each rep of each treatment (3-decen-2-one-treated and non-treated not sprouted) were selected and gently rinsed under cold running water to remove surface soil. The tubers were placed in plastic tubs and covered with damp paper towels for transport to the testing facility.
A TA-XT-2 texture analyzer (Stable Microsystems) was used to test tubers for firmness. A section of peel was removed from the midsection on opposite sides of the tuber. An 8-mm probe was lowered into the tuber tissue within this peeled area to a distance of 5 mm at a speed of 1 mm s^−1. Firmness was recorded as the N (m kg s−1) required to achieve the specified penetration. The two readings per tuber were averaged. Analysis of variance was performed on the data set.

[2] = system: dry rot (Fusarium sambucinum); assay: Disease defects in commercial storage in Canada (Storage Bin 3); assay type: in vivo
Procedure: (§1) One group of sprouted, diseased tubers (Storage Bin 3) were treated with 3-decen-2-one (as SmartBlock®) at the rate of 115 ppm using a hot fogging method. Another group of tubers was left untreated as a control.

[3] = system: Potato variety FL 2053; assay: Sprout control in commercial storage in Canada (Storage Bin 3); assay type: in vivo; conditions: 115 ppm hot fogging, sprouted diseased tubers, FIG. 4
Procedure: as §1

[4] = Dec. 10, 2013, final grading after 115 ppm thermal fog

CCCCCCC=CC(C)=O [3-decen-2-one]
% Increase (tuber firmness vs untreated) ([1]; 6 days after treatment): 4.09%
Tuber firmness (N) Average ([1]; 6 days after treatment): 75.38 N
Tuber firmness (N) Rep 1 ([1]; 6 days after treatment): 67.84 N
Tuber firmness (N) Rep 2 ([1]; 6 days after treatment): 79.18 N
Tuber firmness (N) Rep 3 ([1]; 6 days after treatment): 75.64 N
Tuber firmness (N) Rep 4 ([1]; 6 days after treatment): 78.85 N
% Increase (tuber firmness vs untreated) ([1]; 13 days after treatment): 2.80%
Tuber firmness (N) Average ([1]; 13 days after treatment): 73.45 N
Tuber firmness (N) Rep 1 ([1]; 13 days after treatment): 73.22 N
Tuber firmness (N) Rep 2 ([1]; 13 days after treatment): 67.34 N
Tuber firmness (N) Rep 3 ([1]; 13 days after treatment): 73.98 N
Tuber firmness (N) Rep 4 ([1]; 13 days after treatment): 79.26 N
% Increase (tuber firmness vs untreated) ([1]; 20 days after treatment): 3.28%
Tuber firmness (N) Average ([1]; 20 days after treatment): 74.90 N
Tuber firmness (N) Rep 1 ([1]; 20 days after treatment): 74.51 N
Tuber firmness (N) Rep 2 ([1]; 20 days after treatment): 74.63 N
Tuber firmness (N) Rep 3 ([1]; 20 days after treatment): 72.81 N
Tuber firmness (N) Rep 4 ([1]; 20 days after treatment): 77.64 N
symptoms of dry rot compared to untreated controls ([2]; 115 ppm hot fogging, sprouted diseased tubers, FIG. 4): decreased or eliminated symptoms of dry rot
% Total Defects ([2]; Dec. 10, 2013, bin unloaded after 115 ppm thermal fog on Nov. 13, 2013 (14.30 before treatment), variety FL 2053): 4.23%
moistness of tubers [2, 4]: tubers were not moist and mold
mold development [2, 4]: development had been arrested.
Change (of % total defects) ([2]; Dec. 10, 2013 versus Nov. 13, 2013 before treatment, 115 ppm thermal fog): -70.4
sprouting compared to untreated controls [3]: reduced/prevented sprouting
